Measured values reported in the NIST ThermoML archive (doi:10.1016/j.jct.2013.09.007).
Numbers after ± are expanded uncertainties.

How the values were obtained:
[1] = 101.33 kPa, Liquid, Vibrating tube method
[2] = activity coefficient (dimensionless); of the first substance listed, at infinite dilution; xn = mol fraction of the nth substance listed; conditions: 101 kPa, Liquid, Chromatography, x1 = 0

| Compound | mass density ([1]; 308.15 K) | mass density ([1]; 318.15 K) | mass density ([1]; 328.15 K) | mass density ([1]; 338.15 K) | mass density ([1]; 348.15 K) | mass density ([1]; 358.15 K) | activity coefficient ([2]; 308.15 K) | activity coefficient ([2]; 318.15 K) | activity coefficient ([2]; 328.15 K) | activity coefficient ([2]; 338.15 K) | activity coefficient ([2]; 348.15 K) | activity coefficient ([2]; 358.15 K) | activity coefficient ([2]; 368.15 K) |
| --- | --- | --- | --- | --- | --- | --- | --- | --- | --- | --- | --- | --- | --- |
| CCCC[n+]1cccc(C)c1.N#C[N-]C#N [1-butyl-3-methylpyridinium dicyanamide] | 1040.66 ± 2.1 kg/m3 | 1034.63 ± 2.1 kg/m3 | 1028.66 ± 2.1 kg/m3 | 1022.75 ± 2.1 kg/m3 | 1016.77 ± 2 kg/m3 | 1010.8 ± 2 kg/m3 | – | – | – | – | – | – | – |
| C=CCCCCCC [oct-1-ene] + CCCC[n+]1cccc(C)c1.N#C[N-]C#N | – | – | – | – | – | – | 49.7 ± 3.4 | 46.7 ± 3.2 | 44 ± 3 | 41.8 ± 2.9 | 39.5 ± 2.7 | 37.6 ± 2.6 | 35.7 ± 2.4 |
| CCCCCCCC [octane] + CCCC[n+]1cccc(C)c1.N#C[N-]C#N | – | – | – | – | – | – | 123 ± 8 | 111 ± 8 | 101 ± 7 | 92.7 ± 6.4 | 85.2 ± 5.8 | 79 ± 5.4 | 73.3 ± 5 |
| CCCC(C)=O [pentan-2-one] + CCCC[n+]1cccc(C)c1.N#C[N-]C#N | – | – | – | – | – | – | – | – | 1.81 ± 0.12 | 1.84 ± 0.12 | 1.89 ± 0.13 | 1.93 ± 0.13 | 1.96 ± 0.13 |
| CCC(=O)CC [pentan-3-one] + CCCC[n+]1cccc(C)c1.N#C[N-]C#N | – | – | – | – | – | – | – | – | 1.84 ± 0.12 | 1.89 ± 0.13 | 1.94 ± 0.13 | 1.97 ± 0.13 | 2.01 ± 0.14 |
| CCCO [propan-1-ol] + CCCC[n+]1cccc(C)c1.N#C[N-]C#N | – | – | – | – | – | – | – | – | – | 0.678 ± 0.046 | 0.663 ± 0.045 | 0.65 ± 0.044 | 0.638 ± 0.044 |
| c1ccncc1 [pyridine] + CCCC[n+]1cccc(C)c1.N#C[N-]C#N | – | – | – | – | – | – | – | – | – | 0.718 ± 0.048 | 0.731 ± 0.048 | 0.754 ± 0.05 | 0.768 ± 0.05 |
| C=Cc1ccccc1 [styrene] + CCCC[n+]1cccc(C)c1.N#C[N-]C#N | – | – | – | – | – | – | – | – | 1.39 ± 0.09 | 1.44 ± 0.09 | 1.49 ± 0.1 | 1.54 ± 0.1 | 1.59 ± 0.11 |
| C1CCOC1 [tetrahydrofuran] + CCCC[n+]1cccc(C)c1.N#C[N-]C#N | – | – | – | – | – | – | 1.38 ± 0.09 | 1.4 ± 0.09 | 1.43 ± 0.09 | 1.45 ± 0.1 | 1.47 ± 0.1 | 1.5 ± 0.1 | 1.53 ± 0.1 |
| c1ccsc1 [thiophene] + CCCC[n+]1cccc(C)c1.N#C[N-]C#N | – | – | – | – | – | – | 0.822 ± 0.053 | 0.844 ± 0.054 | 0.868 ± 0.055 | 0.89 ± 0.057 | 0.911 ± 0.058 | 0.937 ± 0.059 | 0.955 ± 0.06 |
| Cc1ccccc1 [toluene] + CCCC[n+]1cccc(C)c1.N#C[N-]C#N | – | – | – | – | – | – | – | – | 2.01 ± 0.14 | 2.05 ± 0.14 | 2.1 ± 0.14 | 2.15 ± 0.15 | 2.2 ± 0.15 |
| O [water] + CCCC[n+]1cccc(C)c1.N#C[N-]C#N | – | – | – | – | – | – | – | – | – | 0.294 ± 0.031 | 0.302 ± 0.031 | 0.307 ± 0.031 | 0.314 ± 0.031 |
